The values that follow come from patent US20080171737A1 (Wyeth, priority 2006, published 2008).

One may read the IC50 as the concentration needed to halve the response being measured. As a reminder, the inhibition is the percentage by which the read-out fell short of the control.

Structures can show the parent of a compound that is named as a salt.

One assay deals with T1, human hNET (Homo sapiens, UniProt P23975).
T1 construct: expressed in transfected cells; host or cells: MDCK-Net6 (MDCK cells stably transfected with hNET)
T1 sequence (P23975 whole entry): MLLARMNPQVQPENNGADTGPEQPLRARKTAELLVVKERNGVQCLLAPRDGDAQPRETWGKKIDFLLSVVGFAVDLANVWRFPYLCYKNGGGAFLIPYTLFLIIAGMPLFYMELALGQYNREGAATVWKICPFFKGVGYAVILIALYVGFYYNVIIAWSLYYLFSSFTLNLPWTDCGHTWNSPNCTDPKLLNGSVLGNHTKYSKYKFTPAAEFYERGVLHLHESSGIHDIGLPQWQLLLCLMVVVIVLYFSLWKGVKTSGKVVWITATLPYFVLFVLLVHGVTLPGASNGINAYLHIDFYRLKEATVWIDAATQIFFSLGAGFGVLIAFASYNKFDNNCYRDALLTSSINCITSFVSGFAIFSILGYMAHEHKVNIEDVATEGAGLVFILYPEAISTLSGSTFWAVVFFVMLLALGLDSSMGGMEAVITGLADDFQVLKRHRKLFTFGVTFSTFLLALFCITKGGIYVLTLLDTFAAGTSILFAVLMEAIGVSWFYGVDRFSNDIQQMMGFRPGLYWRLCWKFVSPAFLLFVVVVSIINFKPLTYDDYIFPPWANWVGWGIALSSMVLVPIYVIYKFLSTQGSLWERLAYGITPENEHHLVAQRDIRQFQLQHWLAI
Description: Functional norepinephrine reuptake assay, Procedure B (6,000 cells/well). In kind it is cell-based.
Conditions: not given
Put shortly: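 MDCK cells stably expressing human NET, 6,000 cells/well, in HEPES-buffered saline pH 7.4 with ascorbic acid and 1 μM pargyline; compound preincubated 5 min at 37° C. ^3H norepinephrine uptake counted by scintillation; non-specific defined with 20 μM desipramine. IC50 from variable-slope sigmoidal nonlinear fit.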
For `CNCCC[C@@H]1Cc2cc(F)ccc2N(c2ccccc2F)S1(=O)=O` (single isomer, unassigned) [Example 110], it took 0.011 µM to reach half-maximal inhibition (IC50).

Still in this assay, the particulars now being: MDCK-Net6 cells, 6,000 cells/well, 16 nM 3H-norepinephrine; read-out: Procedure B hNET uptake IC50.
Regarding `CNCCCC1Cc2ccccc2N(c2cccnc2)S1(=O)=O` (racemic) [Example 123, 3-(2,2-dioxido-1-pyridin-3-yl-3,4-dihydro-1H-2,1-benzothiazin-3-yl)-N-methylpropan-1-amine], the IC50 was 0.256 µM.

With `CNCC[C@@H](O)[C@@H]1Cc2ccccc2N(c2ccccc2)S1(=O)=O` (single isomer, unassigned) [Example 115], the IC50 amounted to 0.546 µM.

Consider `CNCCC[C@@H]1Cc2cc(F)ccc2N(c2ccc(F)cc2F)S1(=O)=O` (single isomer, unassigned) [Example 113], for which the IC50 was determined as 0.034 µM.

On to `CNCCCC1Oc2ccc(-c3ccccc3)cc2N(c2ccccc2)S1(=O)=O` (stereo not drawn) [Example 54, 3-(2,2-dioxido-1,7-diphenyl-1H-4,2,1-benzoxathiazin-3-yl)-N-methylpropan-1-amine], for which the IC50 amounted to 0.407 µM.

Regarding `CNCCC[C@@H]1Cc2ccccc2N(c2ccccc2)S1(=O)=O` (single isomer, unassigned) [Example 11], the IC50 was 0.0179 µM.

As for `CNCC[C@H](O)[C@@H]1Cc2ccccc2N(c2ccccc2)S1(=O)=O` (single isomer, unassigned) [Example 114], the IC50 was 0.101 µM.

Consider `CNCCCC1Cc2cc(Cl)ccc2N(c2ccccc2F)S1(=O)=O` (stereo not drawn) [Example 175, 3-[6-chloro-1-(2-fluorophenyl)-2,2-dioxido-3,4-dihydro-1H-2,1-benzothiazin-3-yl]-N-methylpropan-1-amine], for which the IC50 came to 0.042 µM.

As for `CNCCCC1Sc2ccccc2N(c2ccccc2)S1(=O)=O` (stereo not drawn) [Example 59, 3-(2,2-dioxido-1-phenyl-1H-2,4,1-benzodithiazin-3-yl)-N-methylpropan-1-amine Hydrochloride], the IC50 is 0.122 µM.

Consider `CCNCCC1Oc2ccccc2N(c2ccccc2)S1(=O)=O` (stereo not drawn) [Example 23, 2-(2,2-dioxido-1-phenyl-1H-4,2,1-benzoxathiazin-3-yl)-N-ethylethanamine], for which the IC50 worked out at 0.244 µM.

On to `CNCCCC1Cc2cc(F)ccc2N(c2cccc(F)c2F)S1(=O)=O` (racemic) [Example 145, 3-[1-(2,3-difluorophenyl)-6-fluoro-2,2-dioxido-3,4-dihydro-1H-2,1-benzothiazin-3-yl]-N-methylpropan-1-amine], for which the IC50 was found to be 0.074 µM.

Take `CNCCCC1Oc2ccccc2N(c2cccc(F)c2)S1(=O)=O` (stereo not drawn) [Example 20, 3-[1-(3-fluorophenyl)-2,2-dioxido-1H-4,2,1-benzoxathiazin-3-yl]-N-methylpropan-1-amine]: the IC50 is 0.106 µM.

With `CNCCCC1Cc2cc(F)ccc2N(c2cc(F)ccc2F)S1(=O)=O` (racemic) [Example 151, 3-[1-(2,5-difluorophenyl)-6-fluoro-2,2-dioxido-3,4-dihydro-1H-2,1-benzothiazin-3-yl]-N-methylpropan-1-amine], the IC50 stood at 0.031 µM.

In the case of `CNCCCC1Sc2ccccc2N(c2cccc(C)c2)S1(=O)=O` (stereo not drawn) [Example 60, N-methyl-3-[1-(3-methylphenyl)-2,2-dioxido-1H-2,4,1-benzodithiazin-3-yl]propan-1-amine Hydrochloride], the IC50 turned out to be 0.465 µM.

Take `CNCCC[C@@H]1Cc2ccccc2N(c2ccccc2F)S1(=O)=O` (single isomer, unassigned) [Example 91]: the IC50 came out at 0.004 µM.

Regarding `CN(CCCC1Oc2ccccc2N(c2ccccc2)S1(=O)=O)C1CCCCC1` (stereo not drawn) [Example 85, N-[3-(2,2-dioxido-1-phenyl-1H-4,2,1-benzoxathiazin-3-yl)propyl]-N-methylcyclo hexanamine Hydrochloride], the IC50 was 1.92 µM.

Consider `CNCCCC1Oc2ccccc2N(c2cccnc2)S1(=O)=O` (stereo not drawn) [Example 56, 3-(2,2-dioxido-1-pyridin-3-yl-1H-4,2,1-benzoxathiazin-3-yl)-N-methylpropan-1-amine], for which the IC50 is 0.345 µM.

Consider `CNCCC[C@@H]1Cc2ccccc2N(c2cccnc2)S1(=O)=O` (single isomer, unassigned) [Example 125], for which the IC50 is 0.238 µM.

In the case of `CNCCCC1Cc2ccccc2N(c2ccccc2F)S1(=O)=O` (stereo not drawn) [Example 73, 3-[1-(2-fluorophenyl)-2,2-dioxido-3,4-dihydro-1H-2,1-benzothiazin-3-yl]-N-methylpropan-1-amine Hydrochloride], the IC50 was 0.0177 µM.

In the case of `CNCCC[C@@H]1Oc2ccccc2N(c2ccccc2F)S1(=O)=O` (single isomer, unassigned) [Example 94], the IC50 was 0.022 µM.

For the compound `CNCCC[C@H]1Cc2cc(Cl)ccc2N(c2ccccc2F)S1(=O)=O` (single isomer, unassigned) [Example 176], the IC50 worked out at 0.02 µM.

For the compound `CNCCCC1Oc2ccccc2N(c2ccc3ccccc3c2)S1(=O)=O` (stereo not drawn) [Example 21, N-methyl-3-[1-(2-naphthyl)-2,2-dioxido-1H-4,2,1-benzoxathiazin-3-yl]propan-1-amine], the IC50 was 4.57 µM.

Regarding `CNCCC[C@H]1Cc2cc(F)ccc2N(c2ccccc2OC)S1(=O)=O` (single isomer, unassigned) [Example 167], the IC50 was 0.587 µM.

As for `NCCCC1Oc2ccccc2N(c2ccccc2)S1(=O)=O` (stereo not drawn) [Example 33, 3-(2,2-dioxido-1-phenyl-1H-4,2,1-benzoxathiazin-3-yl)propan-1-amine], the IC50 was found to be 0.597 µM.

Turning to `O=S1(=O)C(CCCNC2CC2)Oc2ccccc2N1c1ccccc1` (stereo not drawn) [Example 40, N-[3-(2,2-dioxido-1-phenyl-1H-4,2,1-benzoxathiazin-3-yl)propyl]cyclopropanamine], the IC50 amounted to 1.07 µM.

As for `C=C(CNC)CC1Cc2ccccc2N(c2ccccc2)S1(=O)=O` (stereo not drawn) [Example 132, 2-[(2,2-dioxido-1-phenyl-3,4-dihydro-1H-2,1-benzothiazin-3-yl)methyl]-N-methylprop-2-en-1-amine], the half-maximal inhibitory concentration (IC50) worked out at 0.016 µM.

The same assay, now with this note: MDCK-Net6 cells, 6,000 cells/well; Conc 6000 nM (6 μM); read-out: Procedure B hNET uptake (% inhibition).
For `O=S1(=O)C(CCN2CCCNCC2)Oc2ccccc2N1c1ccccc1` (stereo not drawn) [Example 77, 3-[2-(1,4-diazepan-1-yl)ethyl]-1-phenyl-1H-4,2,1-benzoxathiazine-2,2-dioxide Dihydrochloride], the inhibition at 6 µM worked out at 33%.

As to `CNCCCC1Oc2ccccc2N(c2cnc3ccccc3c2)S1(=O)=O` (stereo not drawn) [Example 57, 3-(2,2-dioxido-1-quinolin-3-yl-1H-4,2,1-benzoxathiazin-3-yl)-N-methylpropan-1-amine], the inhibition at 6 µM was 41%.

For `O=S1(=O)C(CCCNCCCO)Oc2ccccc2N1c1ccccc1` (stereo not drawn) [Example 39, 3-{[3-(2,2-dioxido-1-phenyl-1H-4,2,1-benzoxathiazin-3-yl)propyl]amino}propan-1-ol], the inhibition at 6 µM was 32%.

Take `CNCCCC1Cc2ccccc2N(c2ccncc2)S1(=O)=O` (racemic) [Example 133, 3-(2,2-dioxido-1-pyridin-4-yl-3,4-dihydro-1H-2,1-benzothiazin-3-yl)-N-methylpropan-1-amine]: the inhibition at 6 µM was determined as 35%.

Turning to `CN(CCCC1Oc2ccccc2N(c2ccccc2)S1(=O)=O)C1CCCCC1` (stereo not drawn) [Example 85, N-[3-(2,2-dioxido-1-phenyl-1H-4,2,1-benzoxathiazin-3-yl)propyl]-N-methylcyclo hexanamine Hydrochloride], the inhibition at 6 µM worked out at 62%.

`CC1CN(CCC2Oc3ccccc3N(c3ccccc3)S2(=O)=O)CC(C)N1` (stereo not drawn) [Example 79, 3-[2-(3,5-dimethylpiperazin-1-yl)ethyl]-1-phenyl-1H-4,2,1-benzoxathiazine 2,2-dioxide hydrochloride]: the inhibition at 6 µM was 21%.

Take `CNCCCC1Sc2ccccc2N(c2ccc(OC)cc2)S1(=O)=O` (stereo not drawn) [Example 65, 3-[1-(4-methoxyphenyl)-2,2-dioxido-1H-2,4,1-benzodithiazin-3-yl]-N-methylpropan-1-amine hydrochloride]: the inhibition at 6 µM was 58%.
